{"source": "ChEMBL document CHEMBL1201862", "about": "“PubChem BioAssay data set” (2004)", "key": {"HeLa": {"system": "HeLa", "assay": "HeLa cell cytotoxicity, dose response, cytotoxicity control, 24 h, cherry-picked samples (AID 504726);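 note: potency for cytotoxicity as loss of luminescence signal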", "assay_type": "functional, cell-based", "settings": "Homo sapiens"}, "[1]": {"target": "T1, Tyrosine-protein phosphatase non-receptor type 7 (Homo sapiens, UniProt P35236)", "T1 sequence (P35236 whole entry)": "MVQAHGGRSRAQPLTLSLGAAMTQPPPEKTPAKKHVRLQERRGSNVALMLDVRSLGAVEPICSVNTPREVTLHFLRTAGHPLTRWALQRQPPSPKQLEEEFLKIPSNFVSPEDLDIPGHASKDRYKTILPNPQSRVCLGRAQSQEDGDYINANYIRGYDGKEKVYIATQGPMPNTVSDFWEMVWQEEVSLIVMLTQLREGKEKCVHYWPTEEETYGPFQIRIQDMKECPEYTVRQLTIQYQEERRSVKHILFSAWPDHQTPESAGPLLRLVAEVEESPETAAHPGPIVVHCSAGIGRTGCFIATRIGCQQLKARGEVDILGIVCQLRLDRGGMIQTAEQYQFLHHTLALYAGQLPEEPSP", "assay_type": "functional"}, "[2]": {"target": "Glyceraldehyde-3-phosphate dehydrogenase (Homo sapiens, UniProt P04406)", "sequence (P04406 whole entry)": "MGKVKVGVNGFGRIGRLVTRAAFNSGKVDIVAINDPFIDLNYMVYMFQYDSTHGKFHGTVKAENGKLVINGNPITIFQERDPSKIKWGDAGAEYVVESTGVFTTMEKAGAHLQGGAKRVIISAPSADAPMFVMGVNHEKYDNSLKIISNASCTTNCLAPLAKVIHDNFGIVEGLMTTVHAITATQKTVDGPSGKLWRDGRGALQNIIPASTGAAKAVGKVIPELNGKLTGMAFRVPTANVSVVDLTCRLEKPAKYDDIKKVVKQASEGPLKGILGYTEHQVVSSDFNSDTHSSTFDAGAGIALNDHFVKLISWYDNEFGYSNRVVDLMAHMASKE"}, "[3]": {"target": "T2, Dual specificity protein phosphatase 6 (Rattus norvegicus, UniProt Q64346)", "T2 sequence (Q64346 whole entry)": "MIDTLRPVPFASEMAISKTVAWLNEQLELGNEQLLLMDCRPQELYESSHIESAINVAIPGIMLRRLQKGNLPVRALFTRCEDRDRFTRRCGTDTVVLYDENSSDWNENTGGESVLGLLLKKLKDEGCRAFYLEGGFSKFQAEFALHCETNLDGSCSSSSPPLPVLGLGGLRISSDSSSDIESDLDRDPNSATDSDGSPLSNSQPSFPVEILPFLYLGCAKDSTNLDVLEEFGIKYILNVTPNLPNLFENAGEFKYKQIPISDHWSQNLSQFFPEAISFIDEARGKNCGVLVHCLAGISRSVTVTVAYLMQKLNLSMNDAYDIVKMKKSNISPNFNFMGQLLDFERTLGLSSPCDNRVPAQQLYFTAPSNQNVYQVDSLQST"}, "[4]": {"target": "T2, Dual specificity protein phosphatase 6", "assay_type": "functional"}, "Protein Rev": {"target": "Protein Rev (Human immunodeficiency virus type 1 group M subtype B (isolate WMJ22)(HIV-1), UniProt P05866)", "sequence (P05866 whole entry)": "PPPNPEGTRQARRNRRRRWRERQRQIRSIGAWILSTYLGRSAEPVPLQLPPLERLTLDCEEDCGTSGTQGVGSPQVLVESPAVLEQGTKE", "assay": "HIV-1 Rev-RRE RNA binding disruptors, dose response, biochemical, protein-RNA interaction (AID 842)", "parameters": "species or system Human immunodeficiency virus 1"}, "[5]": {"target": "Serine/threonine-protein phosphatase PP1-alpha catalytic subunit (Homo sapiens, UniProt P62136)", "sequence (P62136 whole entry)": "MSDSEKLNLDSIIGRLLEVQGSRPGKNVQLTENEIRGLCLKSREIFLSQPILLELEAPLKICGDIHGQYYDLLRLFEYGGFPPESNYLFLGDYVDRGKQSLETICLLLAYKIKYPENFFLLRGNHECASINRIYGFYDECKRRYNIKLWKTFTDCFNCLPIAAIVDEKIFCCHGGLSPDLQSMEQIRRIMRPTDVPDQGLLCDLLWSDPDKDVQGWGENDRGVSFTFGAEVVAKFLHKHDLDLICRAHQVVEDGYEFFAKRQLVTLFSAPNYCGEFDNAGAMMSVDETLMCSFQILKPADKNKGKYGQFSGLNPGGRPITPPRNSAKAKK", "assay": "PP1 phosphatase inhibitors, dose response, biochemical, fluorescence (AID 2403);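 note: phosphatase turnover of OMFP into fluorescent 3-O-methylfluorescein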"}, "[6]": {"target": "Serine/threonine-protein phosphatase (Homo sapiens, UniProt Q9BPW0)", "sequence (Q9BPW0 whole entry)": "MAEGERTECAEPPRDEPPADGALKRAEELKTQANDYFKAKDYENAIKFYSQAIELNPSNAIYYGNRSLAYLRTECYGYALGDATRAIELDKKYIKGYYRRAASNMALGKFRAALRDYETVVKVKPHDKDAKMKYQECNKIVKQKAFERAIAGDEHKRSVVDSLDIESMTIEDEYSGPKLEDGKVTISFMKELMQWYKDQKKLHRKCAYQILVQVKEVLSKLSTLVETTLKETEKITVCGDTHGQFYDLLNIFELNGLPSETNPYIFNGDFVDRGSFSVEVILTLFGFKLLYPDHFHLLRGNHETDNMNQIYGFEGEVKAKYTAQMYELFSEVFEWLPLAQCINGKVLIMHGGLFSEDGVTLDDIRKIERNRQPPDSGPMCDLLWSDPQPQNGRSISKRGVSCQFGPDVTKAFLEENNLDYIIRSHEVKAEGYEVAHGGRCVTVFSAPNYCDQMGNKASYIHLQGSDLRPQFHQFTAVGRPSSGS", "assay": "Counterscreen for inhibitors of PP1: fluorescence-based biochemical high throughput dose response assay to identify inhibitors of Protein Phosphatase 5 (PP5). [Related pubchem assays: 2034 (Summary (PP5 inhibitors)), 1987 (PP5 inhibitors in singlate), 2235 (PP1 inhibitors in singlate)]"}, "[7]": {"target": "Neuropeptides B/W receptor type 1 (Homo sapiens, UniProt P48145)", "sequence (P48145 whole entry)": "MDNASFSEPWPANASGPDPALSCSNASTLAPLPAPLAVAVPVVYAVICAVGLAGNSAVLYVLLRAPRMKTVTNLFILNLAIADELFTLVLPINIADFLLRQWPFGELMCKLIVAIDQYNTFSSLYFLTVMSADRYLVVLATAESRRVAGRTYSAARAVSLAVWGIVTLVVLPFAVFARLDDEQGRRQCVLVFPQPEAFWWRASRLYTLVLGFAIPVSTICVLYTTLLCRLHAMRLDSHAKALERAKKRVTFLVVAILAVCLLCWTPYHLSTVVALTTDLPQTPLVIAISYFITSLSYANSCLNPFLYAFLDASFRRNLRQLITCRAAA", "assay": "Fluorescence-based dose response cell-based high throughput screening assay to identify antagonists of the G-protein coupled receptor 7 (GPR7). [Related pubchem assays: 1952 (Screening assay (GPR7 antagonists).), 1880 (Summary AID.)]", "assay_type": "functional"}, "[8]": {"target": "Melanin-concentrating hormone receptor 1 (Homo sapiens, UniProt Q99705)", "sequence (Q99705 whole entry)": "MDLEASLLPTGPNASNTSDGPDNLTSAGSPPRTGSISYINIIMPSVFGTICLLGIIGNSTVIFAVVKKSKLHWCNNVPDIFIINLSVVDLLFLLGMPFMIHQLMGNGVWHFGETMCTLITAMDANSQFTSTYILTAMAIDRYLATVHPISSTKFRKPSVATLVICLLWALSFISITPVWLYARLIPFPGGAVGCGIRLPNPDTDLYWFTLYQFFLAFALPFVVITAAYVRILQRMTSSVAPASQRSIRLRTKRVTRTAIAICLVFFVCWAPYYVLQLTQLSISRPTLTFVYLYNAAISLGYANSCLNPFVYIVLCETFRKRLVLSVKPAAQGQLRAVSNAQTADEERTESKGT", "assay": "Fluorescence-based counterscreen for antagonists of the G-protein coupled receptor 7 (GPR7): cell-based high throughput dose response assay to identify antagonists of the melanin-concentrating hormone receptor 1 (MCHR1).", "assay_type": "functional"}, "[9]": {"target": "DNA dC->dU-editing enzyme APOBEC-3A (Homo sapiens, UniProt P31941)", "sequence (P31941 whole entry)": "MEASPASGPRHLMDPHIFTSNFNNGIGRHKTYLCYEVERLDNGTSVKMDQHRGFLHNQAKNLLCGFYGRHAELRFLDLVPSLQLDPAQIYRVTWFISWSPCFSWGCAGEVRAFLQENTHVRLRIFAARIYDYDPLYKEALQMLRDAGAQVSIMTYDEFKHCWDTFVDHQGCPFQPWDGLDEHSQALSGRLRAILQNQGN", "assay": "Dose Response confirmation of small molecule APOBEC3A DNA Deaminase Inhibitors via a fluorescence-based single-stranded DNA deaminase assay. [Related pubchem assays (depositor defined):AID493011, AID493024]", "assay_type": "functional"}, "[10]": {"target": "DNA dC->dU-editing enzyme APOBEC-3G (Homo sapiens, UniProt Q9HC16)", "sequence (Q9HC16 whole entry)": "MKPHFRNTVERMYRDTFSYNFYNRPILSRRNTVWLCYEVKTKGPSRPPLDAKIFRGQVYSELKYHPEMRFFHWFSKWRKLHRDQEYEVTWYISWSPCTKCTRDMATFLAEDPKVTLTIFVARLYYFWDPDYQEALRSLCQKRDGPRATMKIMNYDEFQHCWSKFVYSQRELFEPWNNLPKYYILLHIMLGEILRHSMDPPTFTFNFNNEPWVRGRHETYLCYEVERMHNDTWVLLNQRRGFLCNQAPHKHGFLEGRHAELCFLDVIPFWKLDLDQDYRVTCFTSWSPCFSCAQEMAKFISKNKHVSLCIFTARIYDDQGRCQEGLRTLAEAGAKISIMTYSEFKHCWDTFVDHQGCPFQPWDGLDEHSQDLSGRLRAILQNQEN", "assay_type": "functional"}}, "note": "Calls of active or inactive are those of the source."}
{"molecule": "Brc1ccc(-c2noc(COc3ccc4c(c3)CCC4)n2)o1", "values": [{"measurement": "AC50", "setting": "HeLa", "value": "337 µM (active)"}]}
{"molecule": "CCn1c(=O)n(CC)c(=O)n([C@@H](Cc2ccccc2)C(=O)O)c1=O", "values": [{"measurement": "IC50", "setting": "[1]", "value": "> 100 µM (not active)"}, {"measurement": "IC50", "setting": "[2]", "value": "> 100 µM (not active)"}, {"measurement": "IC50", "setting": "[3]", "value": "> 100 µM (inactive)"}, {"measurement": "IC50", "setting": "[4]", "value": "> 100 µM (inactive)"}]}
{"molecule": "CCOC(=O)c1c(C)n(C)c2ccc(O)c(CN(C)C)c12", "values": [{"measurement": "IC50", "setting": "Protein Rev", "value": "> 79.4 µM (not active)"}]}
{"molecule": "O=C(O)C1C2CCC(O2)C1C(=O)NC1CCCCC1", "note": "(configuration not stated)", "values": [{"measurement": "IC50", "setting": "[5]", "value": "3.7 µM (active)"}, {"measurement": "IC50", "setting": "[6]", "value": "3.03 µM (active)"}]}
{"molecule": "FC(F)(F)c1cccc(C[n+]2c3n(c4ccc(C(F)(F)F)cc42)CCCCC3)c1", "values": [{"measurement": "IC50", "setting": "[7]", "value": "19.7 µM (not active)"}, {"measurement": "IC50", "setting": "[8]", "value": "13 µM (not active)"}, {"measurement": "IC50", "setting": "[9]", "value": "2.17 µM (active)"}, {"measurement": "IC50", "setting": "[10]", "value": "3.21 µM (active)"}]}
